Test results from patent US20260048138A1, “NOVEL PI3K AND/OR PIKK INHIBITORS, ANTIBODY-DRUG CONJUGATES COMPRISING THE SAME AND USES THEREOF” (HUTCHMED LIMITED, priority 2024, published 2026).
Like-named read-outs stand apart in the source and are kept apart here.

Tests used:
DNA-PK(h) = target: T1, DNA-PK(h) (Homo sapiens, UniProt P78527); test: DNA-PK(h) kinase activity, HTRF (Eurofins Cerep); format: biochemical; conditions: read-out: DNA-PK(h) (enzyme, IC50)
T1 construct: purchased Eurofins Cerep 14-950
Method: (§1) The […], ATM(h), ATR/ATRIP(h), and DNA-PK (h) were detected by HTRFR.
(§2) The calculation formula was as follows: […]
(§3) For IC50 determination, the data were analyzed using XLFit version 5.3 (ID Business Solutions).

MDA-MB-468 = test: Inhibition of cell proliferation by payloads in vitro (CCK-8); format: cell-based; conditions: Homo sapiens, MDA-MB-468, 144 h, read-out: IC50, nM MDA-MB-468
Method: (§4) The cells were added to a 96-well plate at 1.0×10^3 cells/well and 100 μL/well and incubated in a cell culture incubator at 37° C. and 5% CO2. The test compounds were diluted with a DMEM medium containing 2% DMSO (Sigma-Aldrich, Cat. No. 34869) in a 4-fold gradient to the corresponding concentrations. […] The final concentration of DMSO was 0.2%. The cells were incubated in a cell culture incubator at 37° C. and 5% CO2 for 6 days.
(§5) After 6 days of culture, 10 μL/well of Cell Counting Kit-8 reagent (CCK-8, Dojindo, Cat. No. CK04) was added to the wells and mixed well with shaking. The cells were incubated in a cell culture incubator at 37° C. and 5% CO2 for 0.50-4.0 hours.
(§6) The OD450 optical density value was read on an EnVision™ multi-function microplate reader (PerkinElmer), and the inhibition rates (%) of the compounds were calculated. Then, the half-maximal inhibitory concentration (IC50) values were obtained using the XLfit5 software (ID Business Solutions Limited). All samples were tested in duplicate wells.
(§7) [formula] • wherein • OD450test compound represents the optical density value in the wells of the compounds to be tested; • OD450cell represents the optical density value in the wells of cell controls; • OD450background represents the optical density value in the wells of cell-free controls.

MDA-MB-453 = test: as above; format: cell-based; conditions: Homo sapiens, MDA-MB-453, 144 h, read-out: IC50, nM MDA-MB-453
Method: as §4, §5, §6, §7

[1] = target: T2, Human FRAP1 (mTOR) recombinant protein (Homo sapiens, UniProt P42345); test: FRAP1 (mTOR) kinase activity, LanthaScreen TR-FRET; format: biochemical; conditions: 10 μM ATP, 0.4 μM GFP-4EBP1; read-out: FRAP1 (mTOR) (Enzyme, IC50)
T2 construct: GST; purchased Invitrogen PV4753
Method: Determination of FRAP1 (mTOR) Kinase Activity • Human FRAP1 (mTOR) recombinant protein (GST tag): Invitrogen, Cat. No. PV4753; • GFP-4E-BP1: Thermo Scientific, Cat. No. PV4759; • LanthaScreenTM Tb-p4E-BP1 ([…]) antibody: Thermo Scientific, Cat. No. PV4755; • TR-FRET dilution buffer: Thermo Scientific, Cat. No. PV3574; • ATP solution (10 mM): Thermo Scientific, Cat. No. PV3227; • HEPES (1 M): Gibco, Cat. No. 15630-106; • EDTA (0.5 M), pH 8.0, RNase-free: Invitrogen, Cat. No. A[…]; • Manganese chloride solution: Sigma-Aldrich, Cat. No. M1787; • EGTA: Sigma-Aldrich, Cat. No. E4378; • TWEEN®20: Sigma-Aldrich, Cat. No. P2287; • DTT: Sigma-Aldrich, Cat. No. DTT-RO; • 384-well plate: Corning, Cat. No. 3676; • 384-well plate: Corning, Cat. No. 4514; • Envision multi-mode plate reader: PerkinElmer; 4EBP1 is the substrate of mTOR, and when mTOR is activated, it will phosphorylate […] of the 4EBP1 protein. LanthaScreenTM kinase assay is used to detect the amount of phosphorylated substrate GFP-4E-BP1 produced in kinase activity experiments, thereby judging the mTOR kinase activity, and through the strength of the kinase activity, distinguishing the inhibitory effects of different compounds on the activity of FRAP1 (mTOR) kinase. […] Then, the 384-well plate was placed in a constant temperature incubator protected from light and incubated at room temperature for 1 hour. […] The 384-well plate was taken out and the plate was read using an Envision multi-mode plate reader (the excitation light wavelength was 320 nm and the emission light wavelengths were 495 nm and 520 nm). The inhibition rate was calculated using the formula as below: [formula]

ATM(h) = ATM(h) (Homo sapiens, UniProt Q13315); test: ATM(h) kinase activity, HTRF (Eurofins Cerep); format: biochemical; conditions: read-out: ATM(h) (enzyme, IC50)
Method: as §1, §2, §3

ATR/ATRIP(h) = target: T3, ATR/ATRIP(h) (Homo sapiens, UniProt Q13535); test: ATR/ATRIP(h) kinase activity, HTRF (Eurofins Cerep); format: biochemical; conditions: read-out: ATR/ATRIP(h) (enzyme, IC50)
T3 construct: purchased Eurofins Cerep 14-953
Method: as §1, §2, §3

[2] = target: T4, Human PIK3CA/PIK3R1 (p110α/p85α) recombinant protein (Homo sapiens, UniProt P42336); test: PIK3CA/PIK3R1 (p110α/p85α) kinase activity, Transcreener ADP2 FP; format: biochemical; conditions: 10 μM ATP, 30 μM PIP2:PS; read-out: PIK3CA/PIK3R1 (p110α/p85α) (Enzyme, IC50)
T4 construct: His tag; purchased Invitrogen PV4788
Method: The complex formed by the binding of the ADP Alexa633 Tracer to the ADP2 antibody therein could produce fluorescence polarization. […] Assay is carried out according to the instruction of the kit. […] After that, 10 μl PIK3CA/PIK3R1 (p110α/p85α) enzyme solution was added to each well; then, 10 μl of a mixed solution of ATP and PIP2:PS lipid kinase substrate was added to each well, and the mixture was centrifuged at 1000 rpm for 60 seconds; Then, the 96-well plate was placed in a constant temperature incubator protected from light and incubated at room temperature for 1 hour. […] After the enzymatic reaction was completed, 25 μl of ADP detection mixture was added to the positive control group, 25 μl of ADP detection mixture without ADP^2 antibody was added to the negative control group, and 25 μl of ADP detection mixture without tracer-label ADP and ADP^2 antibody was added to the blank control group. Then centrifugation was performed at 1000 rpm for 60 seconds. The 96-well plate was placed in a constant temperature incubator protected from light, and incubated at room temperature for 1.5 hours. […] [formula] The inhibition rate was calculated using the formula as below: [formula]

CD38 (Ramos cells) = target: T5, CD38 (Ramos cells) (Homo sapiens, UniProt P28907); test: Binding of antibody or ADC to Ramos cells (CD38+) by flow cytometry; conditions: cell binding, MFI by flow cytometry
T5 construct: Ramos cells (ATCC, Cat. No. CRL-1596); host or cells: Ramos

CEACAM5/6 [3] = test: cell-based or functional assay
CEACAM5/6 [4] = test: flow cytometry on H2122 cells (CEACAM5/6+)
CD20 [5] = target: T6, CD20 (UniProt P11836 1-297, limits assumed); test: cell-based or functional assay
T6 sequence (looked up): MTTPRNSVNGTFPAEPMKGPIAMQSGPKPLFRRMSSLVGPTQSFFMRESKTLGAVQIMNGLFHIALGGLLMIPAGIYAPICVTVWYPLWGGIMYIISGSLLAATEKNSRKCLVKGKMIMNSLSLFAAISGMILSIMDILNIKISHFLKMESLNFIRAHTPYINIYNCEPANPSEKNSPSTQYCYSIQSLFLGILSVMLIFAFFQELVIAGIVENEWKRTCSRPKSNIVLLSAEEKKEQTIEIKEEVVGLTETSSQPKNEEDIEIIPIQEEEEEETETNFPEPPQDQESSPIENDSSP

CD20 [6] = target: T6, CD20; test: flow cytometry on Ramos cells (CD20+)
[7] = payloads, proliferation, 6 days, CCK-8

T4 sequence (P42336 whole entry): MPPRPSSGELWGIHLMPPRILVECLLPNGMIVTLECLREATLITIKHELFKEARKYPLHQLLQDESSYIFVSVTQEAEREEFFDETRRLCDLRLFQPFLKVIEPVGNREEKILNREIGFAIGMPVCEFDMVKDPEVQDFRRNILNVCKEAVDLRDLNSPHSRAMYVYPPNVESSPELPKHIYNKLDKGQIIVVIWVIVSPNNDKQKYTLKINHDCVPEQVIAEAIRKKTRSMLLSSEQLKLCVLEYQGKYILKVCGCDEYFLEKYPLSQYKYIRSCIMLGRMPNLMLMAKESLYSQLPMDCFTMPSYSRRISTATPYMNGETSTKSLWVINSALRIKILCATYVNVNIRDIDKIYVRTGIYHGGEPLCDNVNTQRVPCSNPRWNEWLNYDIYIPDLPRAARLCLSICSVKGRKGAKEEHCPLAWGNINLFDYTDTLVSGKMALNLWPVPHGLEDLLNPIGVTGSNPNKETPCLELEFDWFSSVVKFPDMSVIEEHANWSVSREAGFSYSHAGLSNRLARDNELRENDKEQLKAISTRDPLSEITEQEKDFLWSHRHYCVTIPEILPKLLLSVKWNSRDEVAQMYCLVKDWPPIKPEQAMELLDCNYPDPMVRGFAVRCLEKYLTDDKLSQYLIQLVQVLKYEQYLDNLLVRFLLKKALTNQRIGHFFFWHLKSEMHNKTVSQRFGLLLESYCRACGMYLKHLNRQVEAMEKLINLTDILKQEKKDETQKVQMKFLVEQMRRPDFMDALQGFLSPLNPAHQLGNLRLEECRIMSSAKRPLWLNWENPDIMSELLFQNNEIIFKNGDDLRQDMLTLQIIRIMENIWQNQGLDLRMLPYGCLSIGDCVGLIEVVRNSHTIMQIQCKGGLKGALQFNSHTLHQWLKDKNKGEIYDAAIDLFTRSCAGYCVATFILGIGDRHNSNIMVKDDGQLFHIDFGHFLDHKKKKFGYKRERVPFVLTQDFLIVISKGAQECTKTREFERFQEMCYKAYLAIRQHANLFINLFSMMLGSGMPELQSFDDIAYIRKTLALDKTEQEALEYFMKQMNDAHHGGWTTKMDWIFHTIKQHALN
T4 sequence (P27986 whole entry partner): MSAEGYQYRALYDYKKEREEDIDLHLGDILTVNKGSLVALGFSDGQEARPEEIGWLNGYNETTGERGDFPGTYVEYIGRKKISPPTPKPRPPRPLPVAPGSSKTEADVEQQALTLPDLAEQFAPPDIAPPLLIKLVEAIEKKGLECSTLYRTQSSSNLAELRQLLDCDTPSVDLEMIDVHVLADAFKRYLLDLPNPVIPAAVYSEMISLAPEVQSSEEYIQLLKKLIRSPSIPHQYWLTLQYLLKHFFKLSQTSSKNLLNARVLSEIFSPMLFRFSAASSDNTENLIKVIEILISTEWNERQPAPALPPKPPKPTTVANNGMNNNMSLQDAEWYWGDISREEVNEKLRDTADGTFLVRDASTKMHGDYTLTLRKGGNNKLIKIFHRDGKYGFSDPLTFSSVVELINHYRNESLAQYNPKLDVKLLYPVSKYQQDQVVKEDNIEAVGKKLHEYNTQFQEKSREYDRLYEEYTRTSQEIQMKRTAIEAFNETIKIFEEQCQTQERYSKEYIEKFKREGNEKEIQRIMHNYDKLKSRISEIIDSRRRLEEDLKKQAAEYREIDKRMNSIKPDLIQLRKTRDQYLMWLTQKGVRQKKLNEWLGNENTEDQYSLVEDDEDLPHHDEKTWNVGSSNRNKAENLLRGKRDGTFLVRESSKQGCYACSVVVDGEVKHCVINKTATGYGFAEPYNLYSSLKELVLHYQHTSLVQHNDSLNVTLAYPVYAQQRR
Sequence of ATM(h) (Q13315 whole entry): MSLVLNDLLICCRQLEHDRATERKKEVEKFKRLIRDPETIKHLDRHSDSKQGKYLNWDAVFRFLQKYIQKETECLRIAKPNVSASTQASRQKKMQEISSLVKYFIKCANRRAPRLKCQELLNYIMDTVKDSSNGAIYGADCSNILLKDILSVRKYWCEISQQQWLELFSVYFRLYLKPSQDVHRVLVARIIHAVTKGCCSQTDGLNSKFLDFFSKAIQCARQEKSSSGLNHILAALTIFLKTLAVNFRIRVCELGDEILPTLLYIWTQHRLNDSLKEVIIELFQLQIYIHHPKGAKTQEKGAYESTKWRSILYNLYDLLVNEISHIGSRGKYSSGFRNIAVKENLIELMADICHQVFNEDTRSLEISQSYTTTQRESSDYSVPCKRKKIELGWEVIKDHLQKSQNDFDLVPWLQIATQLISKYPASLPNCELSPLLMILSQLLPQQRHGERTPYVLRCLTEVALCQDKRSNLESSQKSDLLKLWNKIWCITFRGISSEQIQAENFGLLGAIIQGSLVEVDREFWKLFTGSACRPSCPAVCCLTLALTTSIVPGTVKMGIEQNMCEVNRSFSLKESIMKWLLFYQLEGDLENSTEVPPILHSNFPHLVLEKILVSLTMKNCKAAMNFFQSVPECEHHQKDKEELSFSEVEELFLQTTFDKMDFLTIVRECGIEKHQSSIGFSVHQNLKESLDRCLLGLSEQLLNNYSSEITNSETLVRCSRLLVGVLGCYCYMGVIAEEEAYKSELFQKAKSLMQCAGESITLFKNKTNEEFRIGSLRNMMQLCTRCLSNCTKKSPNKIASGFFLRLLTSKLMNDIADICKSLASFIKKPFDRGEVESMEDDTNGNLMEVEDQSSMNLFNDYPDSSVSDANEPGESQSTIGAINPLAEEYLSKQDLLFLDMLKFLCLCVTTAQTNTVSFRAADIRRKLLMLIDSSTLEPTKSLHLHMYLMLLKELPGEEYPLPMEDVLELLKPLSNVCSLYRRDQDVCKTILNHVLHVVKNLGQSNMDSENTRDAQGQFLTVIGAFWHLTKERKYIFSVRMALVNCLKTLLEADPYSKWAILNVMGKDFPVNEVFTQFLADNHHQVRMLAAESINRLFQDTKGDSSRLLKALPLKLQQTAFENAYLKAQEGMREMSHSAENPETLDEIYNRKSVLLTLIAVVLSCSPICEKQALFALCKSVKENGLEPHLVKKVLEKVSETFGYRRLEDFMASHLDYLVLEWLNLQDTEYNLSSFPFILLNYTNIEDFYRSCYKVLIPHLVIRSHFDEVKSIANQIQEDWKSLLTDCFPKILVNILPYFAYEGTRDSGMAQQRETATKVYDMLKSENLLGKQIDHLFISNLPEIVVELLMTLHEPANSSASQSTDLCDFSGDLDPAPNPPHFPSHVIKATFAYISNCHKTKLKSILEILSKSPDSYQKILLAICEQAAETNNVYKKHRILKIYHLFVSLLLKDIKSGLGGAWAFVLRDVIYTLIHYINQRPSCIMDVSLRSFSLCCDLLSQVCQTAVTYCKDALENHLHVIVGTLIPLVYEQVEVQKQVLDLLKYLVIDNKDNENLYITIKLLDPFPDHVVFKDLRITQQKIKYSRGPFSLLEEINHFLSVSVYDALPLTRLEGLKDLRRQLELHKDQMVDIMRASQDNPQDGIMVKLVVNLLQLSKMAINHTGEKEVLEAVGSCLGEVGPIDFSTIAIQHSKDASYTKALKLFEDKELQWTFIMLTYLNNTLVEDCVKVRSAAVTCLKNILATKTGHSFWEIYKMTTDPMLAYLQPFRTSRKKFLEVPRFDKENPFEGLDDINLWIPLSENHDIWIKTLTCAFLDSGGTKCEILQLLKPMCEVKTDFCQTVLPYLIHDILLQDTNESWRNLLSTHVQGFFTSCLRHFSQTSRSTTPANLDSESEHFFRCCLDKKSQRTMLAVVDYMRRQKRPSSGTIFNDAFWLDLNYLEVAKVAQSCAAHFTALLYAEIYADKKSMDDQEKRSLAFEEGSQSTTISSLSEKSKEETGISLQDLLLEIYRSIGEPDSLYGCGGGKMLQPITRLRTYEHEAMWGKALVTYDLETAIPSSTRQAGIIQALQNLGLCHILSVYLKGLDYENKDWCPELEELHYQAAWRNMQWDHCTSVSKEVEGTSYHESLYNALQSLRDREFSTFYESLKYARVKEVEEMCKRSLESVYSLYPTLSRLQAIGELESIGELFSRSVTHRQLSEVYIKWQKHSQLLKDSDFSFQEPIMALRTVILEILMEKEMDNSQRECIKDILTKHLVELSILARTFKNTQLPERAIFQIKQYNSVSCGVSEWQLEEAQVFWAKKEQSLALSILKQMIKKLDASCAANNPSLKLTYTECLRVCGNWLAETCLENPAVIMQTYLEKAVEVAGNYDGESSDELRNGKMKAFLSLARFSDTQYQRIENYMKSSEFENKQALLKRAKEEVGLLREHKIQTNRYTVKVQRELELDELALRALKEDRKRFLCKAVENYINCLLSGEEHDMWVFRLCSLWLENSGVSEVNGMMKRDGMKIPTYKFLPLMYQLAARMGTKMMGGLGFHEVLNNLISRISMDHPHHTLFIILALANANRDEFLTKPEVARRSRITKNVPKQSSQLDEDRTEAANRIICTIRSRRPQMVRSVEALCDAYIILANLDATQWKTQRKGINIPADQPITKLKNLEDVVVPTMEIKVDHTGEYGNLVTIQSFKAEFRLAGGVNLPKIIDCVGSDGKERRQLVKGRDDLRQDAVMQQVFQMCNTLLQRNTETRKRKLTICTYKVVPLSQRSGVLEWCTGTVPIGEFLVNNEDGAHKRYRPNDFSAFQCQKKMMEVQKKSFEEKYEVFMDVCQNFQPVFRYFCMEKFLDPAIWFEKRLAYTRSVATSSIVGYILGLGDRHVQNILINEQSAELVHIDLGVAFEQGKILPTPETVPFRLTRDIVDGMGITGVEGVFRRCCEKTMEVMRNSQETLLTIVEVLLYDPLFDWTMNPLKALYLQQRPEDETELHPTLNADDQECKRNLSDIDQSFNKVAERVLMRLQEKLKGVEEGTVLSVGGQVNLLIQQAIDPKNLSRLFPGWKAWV

Question: Which IC50 (DNA-PK(h)) does the source give for `COc1ncc(-c2ccc3ncc4cnc(C5CC5)n4c3c2)cc1NS(=O)(=O)N1CCNCC1` [Compound 1] here?
Answer: Its IC50 is 0.1 nM.

Question: And the IC50 (MDA-MB-468; [7])?
Answer: Its IC50 is 0.39 nM.

Question: And the IC50 (MDA-MB-453; [7])?
Answer: The IC50 was 0.23 nM.

Question: And the IC50 [1]?
Answer: The IC50 was 3.6 nM.

Question: What about the IC50 (ATM(h)) of the same molecule?
Answer: Its IC50 is 0.5 nM.

Question: And the IC50 (ATR/ATRIP(h))?
Answer: Its IC50 is 9 nM.

Question: What about the IC50 [2] of the same molecule?
Answer: The IC50 was 0.5 nM.

Question: Which EC50 (CD38 (Ramos cells)) does the source give for daratumumab here?
Answer: The EC50 was 3.51 nM.

Question: For `COc1ncc(-c2ccc3ncc4c(c3c2)n(C(C)C)c(=O)n4C)cc1NS(=O)(=O)N1CCNCC1` [Compound 29], which IC50 (DNA-PK(h)) is on record?
Answer: Its IC50 is 0.3 nM.

Question: What about the IC50 (MDA-MB-468; [7]) of the same molecule?
Answer: Its IC50 is 0.078 nM.

Question: And the IC50 (MDA-MB-453; [7])?
Answer: The IC50 was 0.056 nM.

Question: And the IC50 [1]?
Answer: The IC50 was 1.4 nM.

Question: What about the IC50 (ATM(h)) of the same molecule?
Answer: The IC50 was 0.7 nM.

Question: What about the IC50 (ATR/ATRIP(h)) of the same molecule?
Answer: The IC50 was 20 nM.

Question: And the IC50 [2]?
Answer: The IC50 was 1.4 nM.

Question: Which results are given for `COc1ncc(-c2ccc3ncc4c(c3c2)n(C2CC2)c(=O)n4C)cc1NS(=O)(=O)N1CCNCC1` [Compound 2]?
Answer: IC50 (DNA-PK(h)): 0.4 nM; IC50 (MDA-MB-468): 0.41 nM; IC50 (MDA-MB-453): 0.31 nM; IC50 [1]: 6.3 nM; IC50 (ATM(h)): 1 nM; IC50 (ATR/ATRIP(h)): 13 nM; IC50 [2]: 0.7 nM

Question: How did the IC50 (DNA-PK(h)) turn out when `COCC1(n2c(=O)n(C)c3cnc4ccc(-c5cnc(OC)c(NS(=O)(=O)N6CCNCC6)c5)cc4c32)CC1` [Compound 30] was run?
Answer: The IC50 was 0.6 nM.

Question: What about the IC50 (MDA-MB-468; [7]) of the same molecule?
Answer: The IC50 was 0.64 nM.

Question: And the IC50 (MDA-MB-453; [7])?
Answer: Its IC50 is 0.41 nM.

Question: What about the IC50 [1] of the same molecule?
Answer: Its IC50 is 4.6 nM.

Question: What about the IC50 (ATM(h)) of the same molecule?
Answer: The IC50 was 1 nM.

Question: And the IC50 (ATR/ATRIP(h))?
Answer: Its IC50 is 36 nM.

Question: And the IC50 [2]?
Answer: Its IC50 is 2.3 nM.

B1: ADC-32 (antibody, human IgG1, kappa, V domains shown)
VH: QVQLVQSGAEVKKPGASVKVSCKASGYTFTDYAMHWVRQAPGQRLEWMGLISTYSGDTKYNQNFQGRVTMTVDKSASTAYMELSSLRSEDTAVYYCARGDYSGSRYWFAYWGQGTLVTVSS
VL: DIQMTQSPSSLSASVGDRVTITCQASENIYGALNWYQRKPGKSPKLLIYGASNLATGMPSRFSGSGSGTDYTFTISSLQPEDIATYYCQQVLSSPYTFGGGTKLEIKR
Question: Which IC50, nM, cell proliferation, H2122 cell line (CEACAM 5/6^+) (CEACAM5/6 [3]) does the source give for B1 here?
Answer: The IC50, nM, cell proliferation, H2122 cell line (CEACAM 5/6^+) was 0.29 nM.

Question: What about the EC50 (CEACAM5/6 [4]) of the same molecule?
Answer: The EC50 was 4.26 nM.

B2: mAb1 (antibody, human IgG1, kappa, V domains shown)
VH: B1 VH
VL: B1 VL
Question: Which EC50 (CEACAM5/6 [4]) does the source give for B2 here?
Answer: Its EC50 is 7.94 nM.

B3: ADC-24 (antibody, human IgG1, kappa, V domains shown)
VH: QVQLQQPGAELVKPGASVKMSCKASGYTFTSYNMHWVKQTPGRGLEWIGAIYPGNGDTSYNQKFKGKATLTADKSSSTAYMQLSSLTSEDSAVYYCARSTYYGGDWYFNVWGAGTTVTVSA
VL: QIVLSQSPAILSASPGEKVTMTCRASSSVSYIHWFQQKPGSSPKPWIYATSNLASGVPVRFSGSGSGTSYSLTISRVEAEDAATYYCQQWTSNPPTFGGGTKLEIKR
Question: Which “IC50, nM, cell proliferation, Ramos cell line (CD20^+)” value (CD20 [5]) does the source give for B3 here?
Answer: The value was 27.7 nM.

Question: And the EC50 (CD20 [6])?
Answer: The EC50 was 0.457 nM.

B4: Rituximab (antibody, human IgG1, kappa, V domains shown)
VH: B3 VH
VL: B3 VL
Question: How did the EC50 (CD20 [6]) turn out when B4 was run?
Answer: The EC50 was 0.691 nM.
